According to US20150216167A1 (Heinrich Heine Universitat Dusseldorf, priority 2011, published 2015):

Key:
[1] = biological target: T1, C4-PEPC (PEP carboxylase from F. trinervia) (Flaveria trinervia, UniProt P30694); test: Spectrophotometric coupled assay with malate dehydrogenase, purified PEP carboxylases; assay type: biochemical; settings: C4 (F. trinervia) versus C3 (F. pringlei) enzyme
T1 construct: histidine tag; made in house; host or cells: E. coli
T1 sequence (P30694 1-966): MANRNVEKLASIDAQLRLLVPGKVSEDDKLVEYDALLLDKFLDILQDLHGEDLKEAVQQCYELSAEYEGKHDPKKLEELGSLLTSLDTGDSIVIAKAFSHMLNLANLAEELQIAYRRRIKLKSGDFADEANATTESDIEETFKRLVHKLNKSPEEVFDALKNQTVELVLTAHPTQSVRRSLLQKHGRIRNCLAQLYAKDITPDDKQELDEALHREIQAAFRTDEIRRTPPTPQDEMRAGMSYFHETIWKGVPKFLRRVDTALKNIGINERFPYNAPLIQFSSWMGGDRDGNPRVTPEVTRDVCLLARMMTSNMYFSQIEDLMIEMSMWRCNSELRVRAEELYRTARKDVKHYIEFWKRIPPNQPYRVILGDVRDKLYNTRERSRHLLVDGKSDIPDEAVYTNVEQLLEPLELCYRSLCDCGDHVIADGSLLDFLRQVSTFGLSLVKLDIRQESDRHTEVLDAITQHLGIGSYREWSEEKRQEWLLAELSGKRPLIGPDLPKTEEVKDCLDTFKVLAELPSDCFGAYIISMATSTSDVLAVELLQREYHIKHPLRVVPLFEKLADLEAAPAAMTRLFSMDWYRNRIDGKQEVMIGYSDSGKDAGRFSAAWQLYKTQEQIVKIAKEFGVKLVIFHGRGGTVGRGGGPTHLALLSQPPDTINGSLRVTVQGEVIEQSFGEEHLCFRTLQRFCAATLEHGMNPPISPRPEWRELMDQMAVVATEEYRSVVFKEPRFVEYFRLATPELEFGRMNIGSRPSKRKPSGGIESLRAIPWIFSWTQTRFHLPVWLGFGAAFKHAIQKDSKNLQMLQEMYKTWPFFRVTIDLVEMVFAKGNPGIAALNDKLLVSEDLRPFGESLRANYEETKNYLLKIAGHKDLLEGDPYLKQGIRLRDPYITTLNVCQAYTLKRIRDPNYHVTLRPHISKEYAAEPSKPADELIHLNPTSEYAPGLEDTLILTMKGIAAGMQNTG
From the text: (§1) Inhibition of purified PEP carboxylases from F. pringlei and F. trinervia by compounds selected from the VDS was monitored by a spectrophotometric coupled assay with malate dehydrogenase which reduces the oxaloacetate formed by PEP carboxylase to malate. The simultaneous oxidation of NADH is followed at 340 nm with standard optical equipment. The concentration of the inhibitors selected from the VDS was varied in the coupled assay to determine the half maximal inhibitory concentration (IC50).
as §1, with “(1050).” for “(IC50).”

PEP carboxylase = settings: Pairoba et al. (1996); cited from earlier work
[2] = high clog values; cited from earlier work
[3] = test system: pyruvate phosphate dikinase (PPDK); settings: cited from earlier work
bile salt hydrolase = settings: cited from earlier work

Compound	inhibition of PEP carboxylase from C4 plant Amaranthus viridis (PEP carboxylase)	also measured
Oc1cc(O)c2c(c1)O[C@H](c1ccc(O)c(O)c1)[C@@H](O)C2 [compound 1, (2R,3S)-2-(3,4-dihydroxyphenyl)-3,4-dihydro-2H-chromene-3,5,7-triol]		Selective Inhibition of a C4-PEPC ([1]; measured at 50 micromolar and 500 micromolar, FIG. 2): Selective Inhibition
Nc1nc2ncc(CNc3ccc(C(=O)N[C@@H](CCC(=O)O)C(=O)O)cc3)nc2c(=O)[nH]1 [compound 4, Folic Acid]		Selective Inhibition of a C4-PEPC ([1]; measured at 0.025 mM, FIG. 3): Selective Inhibition
O=c1c(O)c(-c2ccc(O)c(O)c2)oc2cc(O)ccc12 [fisetin]	inhibited	
C=C1CCC[C@H]2[C@](C)(CC3=C(O)C(=O)C=C(OC)C3=O)[C@@H](C)CC[C@]12C [ilimaquinone]		solubility in water [2]: low solubility in water
O=c1c(O)c(-c2ccc(O)cc2)oc2cc(O)cc(O)c12 [kaempferol]	inhibited	
O=c1c(O)c(-c2ccc(O)cc2O)oc2cc(O)cc(O)c12 [morin]	inhibited	
O=c1c(O)c(-c2cc(O)c(O)c(O)c2)oc2cc(O)cc(O)c12 [myricetin]	inhibited	
O=c1c(O)c(-c2ccc(O)c(O)c2)oc2cc(O)cc(O)c12 [quercetin]	inhibited	
C/C=C(\C)c1cc(O)c(C)c2c1Oc1cc(O)cc(C)c1C(=O)O2 [unguinol]		selective inhibitors of PPDK ([3]; PPDK from C4 plants maize, millet and proso millet): selective inhibitors; IC50 ([3]; isolated enzyme, read-out: half maximal inhibitory concentration (1050)): 40 µM; inhibits the enzyme bile salt hydrolase (bile salt hydrolase): inhibits
baicalein/baicalin	inhibited	
